# Test system: human platelets
# Test: inhibition of aggregation of human platelets ex vivo
# Format: cell-based
# Conditions: Platelet, read-out: IC50, inhibit aggregation of human platelets ex vivo
row,IC50 [nM],Structure (SMILES)
1,1 to 10,CC(C)(C)NC(=O)NS(=O)(=O)c1cc(C#N)ccc1Oc1cccc(-c2ccc(OC(F)(F)F)cc2)c1 [NTP43]
2,1 to 10,COc1ccc(-c2cccc(Oc3ccc([N+](=O)[O-])cc3S(=O)(=O)NC(=O)NC(C)(C)C)c2)cc1 [TP20]
